Source: paper PMC11650737, “Developing MYC Degraders Bearing the Von Hippel–Lindau Ligand to Target the “Undruggable” MYC” (ACS Pharmacology & Translational Science, 2024)
Values joined by “and” are separate entries in the source; they are usually repeats but may differ in a detail not shown here. Equal values may be shown once.

How the values were obtained:
SKBR3 cells [1] = test: Cell uptake / intracellular concentration by LC-MS/MS, SKBR3; assay type: in vitro ADME, human; conditions: SKBR3, 24 h incubation with 10 μM
Protocol: Therefore, in order to better comprehend the observed activities of our degraders, following incubation of each compound with cells, the intracellular concentrations of the synthesized derivatives were evaluated in different cancer cell lines, as described previously.[28],[29] SKBR3, PC3, or A549 cells were incubated with PROTACs (at a 10 μΜ concentration) for selected time points, respectively. Upon sample treatment, compounds were extracted and analyzed by LC-MS/MS. Table 1 presents the percentage of the molecule that enters the cells after 24 h incubation at the 10 μM concentration. […] The small molecule MYCi361, used as a binding domain component of MYC, was also evaluated in the cell uptake assay (Table 1).
Cells were plated in 24-well plates at a density of 2 × 10^5 cells/well. 24 h after seeding, cells were incubated with each PROTAC (10 μΜ) for certain time points (1 h, 4 h, 8 h, and 24 h). The incubations were terminated at the selected time points by removing the medium and washing the cells twice with 1 mL cold PBS (1×) in each well in order to remove unbound PROTAC. Subsequently, the cells were lysed by adding a cold solution of ACN:H2O (3:2) and scraping off the cell monolayer. This process was done in two steps: first, 200 μL of ACN:H2O was added, the cells were scraped, and the cell lysate was collected. The second step involved the addition of an extra 100 μL of ACN:H2O, scraping, and collection of the remaining lysate. Samples were subsequently vortexed, sonicated, and centrifuged for 10 min at 13 000 rpm. The supernatants were collected, evaporated for 1 h at 55 °C, and stored at −20 °C until the day of analysis. Samples were then reconstituted in 200 μL of initial mobile phase (100% A), and the intracellular accumulation of PROTACs was determined by LC-MS/MS analysis using Warfarin as a stable internal standard and PROTAC standards for the construction of analytical standard curves.
The percentage of cell uptake was calculated as follows: [drawing 1]

SKBR3 cells [2] = test: Cell viability (MTT) assay, SKBR3; assay type: cell-based, human; conditions: Homo sapiens, SK-BR-3, 72 h, read-out: IC50 (antiproliferative effect)
Protocol: (§1) The antiproliferative activity of the synthesized compounds was tested in cell viability assays optimally set up for various cancer cell lines (results are depicted in Table 2, n = 3, average IC50 (μM) ± SD).
(§2) Cells were plated at a density of 5 × 10^3 cells per well on 96-well plates. After 24 h of incubation (37 °C, 5% CO2), the cell medium was removed, and compounds were added at selected concentrations (0.1–100 μM), followed by incubation for 72 h. Control cells were treated with 0.4% DMSO medium to match the conditions in the wells where drugs were added. After 72 h, the medium was removed, and the 3-(4,5-dimethylthiazol-2-yl)-2,5-diphenyltetrazolium bromide (MTT) solution (0.3 mg/mL in PBS) was added to cells for 3 h under no light conditions. The MTT solution was removed, and the formazan crystals were dissolved in 100 μL of DMSO. The optical density was measured at 570 nm with a reference wavelength of 690 nm using an absorbance microplate reader (SpectraMax 190, Molecular Devices, Sunnyvale, CA, USA). The half-maximal inhibitory concentration (IC50) was calculated based on a four-parameter logistic equation, generating a cell viability curve, using GraphPad Prism 6.01 (GraphPad Software, Inc.). Two concentrations of an established drug, Docetaxel (100 nM and 1 nM), were used in each experiment as a positive control. The resulting absorbance values were used instead of IC50 calculation. Each point was the result of three independent experiments performed in triplicate.

A549 cells = test: Cell viability (MTT) assay, A549; assay type: cell-based, human; conditions: 72 h
Protocol: as §1
as §2, with “Two concentrations of an established drug, Docetaxel (100 nM and 1 nM), were used in each experiment as a positive control.” left out, “Each point was the result of three independent experiments performed in triplicate.” left out

[3] = system: various cancer cell lines; test: Cell viability (MTT) assay, cell line not singled out; assay type: cell-based; conditions: Homo sapiens, 72 h, summary over cancer cell lines (breast and prostate), read-out: IC50 (antiproliferative activity)
Protocol: as §1
as §2, with “Two concentrations of an established drug, Docetaxel (100 nM and 1 nM), were used in each experiment as a positive control.” left out, “Each point was the result of three independent experiments performed in triplicate.” left out

c-MYC = molecular target: T1, c-MYC (Homo sapiens, UniProt P01106); test: MYC degradation in PC3 cells, Western blot; assay type: cell-based
T1 construct: endogenous in cells; host or cells: PC3
T1 sequence (P01106 whole entry): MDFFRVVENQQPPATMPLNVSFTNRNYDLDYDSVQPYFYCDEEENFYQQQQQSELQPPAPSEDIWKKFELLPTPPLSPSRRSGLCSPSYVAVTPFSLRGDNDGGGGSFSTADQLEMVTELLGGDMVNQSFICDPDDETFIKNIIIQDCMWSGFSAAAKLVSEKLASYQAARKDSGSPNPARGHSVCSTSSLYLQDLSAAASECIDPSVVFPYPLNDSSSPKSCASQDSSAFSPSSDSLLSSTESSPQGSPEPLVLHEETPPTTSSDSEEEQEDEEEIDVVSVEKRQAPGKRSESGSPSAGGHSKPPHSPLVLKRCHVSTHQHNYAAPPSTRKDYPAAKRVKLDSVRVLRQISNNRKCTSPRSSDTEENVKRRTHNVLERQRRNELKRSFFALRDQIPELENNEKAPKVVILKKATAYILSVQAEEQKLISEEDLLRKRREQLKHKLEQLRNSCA
Protocol: The ability of novel compounds to induce MYC degradation in the PC3 cell line was evaluated via a Western blot-based assay. […] A PROTAC that effectively degrades bromodomain and extra-terminal (BET) family proteins, with indirect action on MYC levels, BETd-260, was also included in these experiments as a positive control. BETd-260 was tested at a lower concentration (1 μΜ) due to its high potency.[26]
PC3 cells were used for the determination of MYC levels after treatment with the PROTACs under study. Cells (at a density of 250 000 per well) were seeded in 6-well plates for 24 h until 60% confluence. During the 24-h incubation period, cells were treated with the tested compounds (10 μΜ) and BETd-260 (1 μΜ) that was used as a positive control. For rescue experiments, cells were pretreated with the inhibitor MG-132 for 2 h, and then, the medium was removed, followed by the addition of the selected compound. After the 24-h incubation period, a cell lysis protocol was performed. The medium was removed, and the cells were rinsed with cold PBS. Lysis was induced using RIPA lysis buffer (50 mM Tris-HCl at pH 7.5, 150 mM NaCl, 5 mM Na2EDTA, 1 mM EGTA, 0.1% SDS, 1% NP-40, 0.5% sodium deoxycholate, 8 mM sodium fluoride, and 1 mM sodium orthovanadate) and protease inhibitor cocktail (Roche, UK). Total protein concentration in lysate samples was determined via performance of the Bradford assay in bovine serum albumin (BSA). Standard and unknown samples were preformulated in Coomassie blue G-250 assay reagent (Thermo Fisher Scientific, MA, USA), followed by a readout at 595 nm. Separation of the protein isolated from PC3 lysates, respectively (10 μg), with NuPAGE sample reducing agent and NuPAGE LDS sample buffer (Invitrogen, UK), was achieved via SDS-PAGE electrophoresis at 110 V for 2 h, prior to overnight transfer to the polyvinylidene difluoride (PVDF) membrane. The membranes were then blocked in 5% nonfat dry milk in Tris-buffered saline with 0.1% Tween-20 (TBST-T) for 1 h at room temperature.
Detection of MYC in PC3 cells was accomplished via immunoblot of the POI with the indicated monoclonal antibody (Cell Signaling Technology, MA, USA, catalog number #5605) at 1:1000 in TBST at […] overnight. The secondary anti-rabbit peroxidase-conjugate antibody (Cell Signaling Technology, MA, USA, catalog number #7074) was further added at 1:2000 dilution, followed by 1-h incubation at room temperature. Chemiluminescent visualization of the MYC protein bands was performed after the addition of Immobilon Crescendo Western HRP substrate (Sigma-Aldrich, Munich, Germany). For normalization of MYC concentration, GAPDH was labeled using the specific rabbit monoclonal antibody (Cell Signaling Technology, MA, USA, catalog number #5174) at 1:20000 in 5% nonfat dry milk. Protein bands were quantified with the ImageJ software.

SMILES	Uptake by cells (SKBR3 cells [1])	intracellular concentration (SKBR3 cells [1]; corresponding to the uptake) [µM]	IC50 (SKBR3 cells [2]) [µM]	IC50 (antiproliferative effect) (A549 cells)	IC50 [3] [µM]	dose dependence of MYC degradation (c-MYC; 1–20 μΜ, 24 h)	c-MYC degradation after short treatment (c-MYC; 10 μΜ, 3 h)	MYC degradation (MYC levels by Western blot) (c-MYC; 10 μΜ, 24 h)	MYC levels after pretreatment with proteasome inhibitor MG-132 (c-MYC; MG-132 10 μΜ 2 h, then compound 10 μΜ 24 h, versus control group)
Cc1ncsc1-c1ccc(CNC(=O)[C@@H]2C[C@@H](O)CN2C(=O)[C@@H](NC(=O)CCC(=O)NCCCOc2ccc(-c3cc(C(F)(F)F)nn3C)c(O)c2-c2cc(C(F)(F)F)cc(C(F)(F)F)c2)C(C)(C)C)cc1 [CSI86]	26% and 26 ± 5%	2.6	15 ± 4	inactive	13 to 18				
Cc1ncsc1-c1ccc(CNC(=O)[C@@H]2C[C@@H](O)CN2C(=O)[C@@H](NC(=O)CCCC(=O)NCCCOc2ccc(-c3cc(C(F)(F)F)nn3C)c(O)c2-c2cc(C(F)(F)F)cc(C(F)(F)F)c2)C(C)(C)C)cc1 [CSI107]			14 ± 2		13 to 18	dose-dependent manner	effectively mediated c-MYC degradation	significantly active	no reduction in MYC levels
Cc1ncsc1-c1ccc(CNC(=O)[C@@H]2C[C@@H](O)CN2C(=O)[C@@H](NC(=O)COCCOCC(=O)NCCCOc2ccc(-c3cc(C(F)(F)F)nn3C)c(O)c2-c2cc(C(F)(F)F)cc(C(F)(F)F)c2)C(C)(C)C)cc1 [CSI135]								No particular effect	
